Source: PMC6017873 (Molecules : A Journal of Synthetic Chemistry and Natural …, 2018)

Key:
[1] = tested on: primary human CD34+ stem/progenitor cells; test: Growth and viability of primary CD34+ stem/progenitor cells; type: cell-based
Description: Figure 7 Only very high concentrations of eurochevalierine impair the growth of healthy primary human CD34^+ stem/progenitor cells. CD34^+ cells were incubated with the indicated concentrations of eurochevalierine and cell growth (a) and viability (b) were assessed after 72 h of treatment. Results correspond to the mean ± SD of three independent experiments with * and ** indicate p < 0.05 and p < 0.01 versus control.
Primary CD34^+ progenitor/stem cells were isolated from human umbilical cord blood obtained from the Clinique Bohler (Hôpitaux Robert Schuman, Luxembourg, Luxembourg) with the written informed consent of parents with the approval of the National Research Ethics Committee of Luxembourg. First, mononucleated cells were isolated by Ficoll™ (GE Healthcare, Roosendaal, The Netherlands) density gradient centrifugation. CD34^+ cells were then purified out from mononucleated cells using magnetic cell sorting following the manufacturer’s instructions (MACS Miltenyi, Utrecht, The Netherlands).
High purity CD34^+ cells were treated after 3 days of amplification in Stemline® II Hematopoietic Stem cell Expansion Medium (Sigma) supplemented with 1% antibiotic-antimycotic (BioWhittaker®, Lonza, Verviers, Belgium), 4 mM L-glutamine (BioWhittaker®), 50 ng/mL stem cell factor (ReliaTech, Wolfenbüttel, Germany), and 10 ng/mL interleukin 3 (Reliatech, Wolfenbüttel, Germany). Other cell models were cultured in RPMI1640 (BioWhittaker®) supplemented with 10% heat-inactivated fetal calf serum (BioWhittaker®) and 1% antibiotic-antimycotic. Cell lines were cultured at 37 °C in a humid atmosphere and at 5% CO2.
(§1) PBMCs and CD34^+ cells were processed through a semi-automated image-based cell analyzer (Cedex XS Innovatis, Roche, Luxembourg), which provides information about cell concentration and viability based on the Trypan Blue exclusion method.

[2] = tested on: panel of cancer cell lines; set-up: method as in PMID 22976482; conditions: read-out: mean IC50 for the growth inhibition of cancer cells; cited from earlier work
U-373 cells = test: Sub-G1 fraction by PI flow cytometry, U-373; type: cell-based, human; conditions: U-373, 50 µM, 72 h
Description: (§2) Figure 2 Effect of eurochevalierine on cell cycle distribution. Cells were treated with 50 µM eurochevalierine for 72 h and then stained with propidium iodide (PI), and DNA content was measured by flow cytometry. (a) Cell cycle distribution profile in A-549 cells. Results of three independent experiments are represented on the same graph. (b) Quantification of the number of cells in sub-G1 fraction as a percentage of the total cell population. Results are expressed as mean ± SD of at least three independent experiments.
(§3) Cells were collected, fixed, and stained with the APO AF TUNEL detection kit (BD, Erembodegem, Belgium) allowing analysis of both apoptosis and cell cycle at the same time. The experiment was conducted accordingly to the procedure of the manufacturer. Data were obtained through flow cytometry with a Cell Lab Quanta apparatus (Analis, Suarlee, Belgium).

[3] = tested on: PBMCs from healthy donors; test: Viability of PBMCs from healthy donors (Trypan Blue exclusion); type: cell-based; conditions: up to 48 h, up to 100 µM
Description: The viability of PBMCs from healthy donors was assessed after 24 and 48 h of treatment at the indicated concentration of eurochevalierine. Results correspond to mean ± SD of three independent experiments.
PBMCs were isolated as previously reported.
as §1

[4] = tested on: total HDAC activity (K-562 nuclear extracts); test: In vitro total HDAC activity using K-562 nuclear extracts; type: biochemical, human; conditions: 100 µM
Description: (§4) (a) In vitro total HDAC activity was evaluated using K-562 nuclear extracts in the presence of various concentrations of eurochevalierine. (b) Selective in vitro HDAC activity assays were carried out using selected recombinant HDAC proteins in the presence of various concentrations of eurochevalierine. Results are reported as percent of DMSO vehicle control and expressed as the mean ± SD of three independent experiments. * and ** indicate p < 0.05 and p < 0.01 versus untreated cells, respectively.

HDAC8 = target: T1, HDAC8 (Homo sapiens, UniProt Q9BY41); test: Selective in vitro HDAC activity assay, recombinant HDAC8; type: biochemical; conditions: 100 µM
T1 sequence (Q9BY41 1-377): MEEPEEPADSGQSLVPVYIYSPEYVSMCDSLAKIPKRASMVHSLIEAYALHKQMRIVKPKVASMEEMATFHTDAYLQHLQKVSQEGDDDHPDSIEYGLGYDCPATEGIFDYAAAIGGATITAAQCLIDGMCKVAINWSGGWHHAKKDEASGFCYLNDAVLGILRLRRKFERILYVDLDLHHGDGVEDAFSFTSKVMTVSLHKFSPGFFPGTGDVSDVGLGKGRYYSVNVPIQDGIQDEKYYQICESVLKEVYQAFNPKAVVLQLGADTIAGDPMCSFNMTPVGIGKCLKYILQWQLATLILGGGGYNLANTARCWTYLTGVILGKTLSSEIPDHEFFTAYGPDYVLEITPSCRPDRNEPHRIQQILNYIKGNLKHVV
Description: as §4

HDAC1 = HDAC1 (Homo sapiens, UniProt Q13547); test: Selective in vitro HDAC activity assay, recombinant HDAC1; type: biochemical; conditions: 100 µM
Description: as §4

A-549 cells = test: Sub-G1 fraction by PI flow cytometry, A-549; type: cell-based, human; conditions: A-549, 50 µM, 72 h
Description: as §2, §3

SIRT3 = target: T2, SIRT3 (Homo sapiens, UniProt Q9NTG7); test: In vitro SIRT3 activity assay; type: biochemical
T2 sequence (Q9NTG7 1-399): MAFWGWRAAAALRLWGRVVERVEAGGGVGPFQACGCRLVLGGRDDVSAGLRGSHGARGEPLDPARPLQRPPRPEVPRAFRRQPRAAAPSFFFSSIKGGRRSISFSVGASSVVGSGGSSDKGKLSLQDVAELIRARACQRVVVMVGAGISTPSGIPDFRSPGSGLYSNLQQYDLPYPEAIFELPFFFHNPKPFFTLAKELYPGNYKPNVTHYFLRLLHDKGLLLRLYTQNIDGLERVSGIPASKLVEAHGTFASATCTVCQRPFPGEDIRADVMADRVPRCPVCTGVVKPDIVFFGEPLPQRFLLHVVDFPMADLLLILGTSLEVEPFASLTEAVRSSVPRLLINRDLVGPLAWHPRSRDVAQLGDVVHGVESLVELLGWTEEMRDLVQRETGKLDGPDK

Sequence of HDAC1 (Q13547 whole entry): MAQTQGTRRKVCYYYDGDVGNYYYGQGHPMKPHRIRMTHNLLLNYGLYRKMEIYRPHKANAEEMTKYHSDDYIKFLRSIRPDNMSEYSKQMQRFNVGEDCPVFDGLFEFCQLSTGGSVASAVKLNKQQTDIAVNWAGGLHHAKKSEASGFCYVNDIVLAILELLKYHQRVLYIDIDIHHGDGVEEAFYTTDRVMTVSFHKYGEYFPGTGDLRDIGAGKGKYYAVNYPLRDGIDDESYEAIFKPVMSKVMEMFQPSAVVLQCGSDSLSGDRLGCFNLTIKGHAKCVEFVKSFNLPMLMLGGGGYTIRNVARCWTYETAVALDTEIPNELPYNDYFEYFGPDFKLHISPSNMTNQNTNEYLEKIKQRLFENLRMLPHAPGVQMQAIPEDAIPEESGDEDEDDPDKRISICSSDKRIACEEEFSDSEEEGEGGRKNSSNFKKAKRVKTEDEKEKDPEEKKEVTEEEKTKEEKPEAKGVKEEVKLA

SMILES: C=C(C)[C@@H]1CC[C@@H](C)[C@@]2(O)[C@@H]1C=C(C)[C@@H](OC(C)=O)[C@@H]2OC(=O)[C@H](CC(=O)c1ccccc1NC)NC=O [Eurochevalierine, eurochevalierine]
- impact on CD34+ cell viability ([1]; 200 µM, 72 h): minor impact on cell viability
- IC50 ([1]; Homo sapiens, 72 h, read-out: IC50 growth inhibition of CD34+ cells): > 200 µM
- inhibition at 200 µM ([1]; Homo sapiens, 200 µM, 72 h, read-out: maximum growth inhibition of CD34+ cells): ~30%
- selectivity factor cancer cells versus normal proliferating CD34+ cells ([1]; IC50 in healthy cells (>200 µM) versus mean IC50 in cancer cells (28 µM)): > 7
- IC50 [2]: 28 µM
- sub-G1 fraction (U-373 cells): did not increase the sub-G1 fraction
- acute toxicity on viability of PBMCs [3]: does not trigger any acute toxicity
- inhibition of total HDAC activity [4]: about 33%
- effect on HDAC8 deacetylase activity (HDAC8): without effect
- effect on HDAC1 deacetylase activity (HDAC1): without effect
- sub-G1 fraction (A-549 cells): did not increase the sub-G1 fraction
- remaining SIRT3 enzymatic activity compared to the control set to 100% (SIRT3; at 100 µM): 59%
- IC50 (SIRT3; mean ± SD of three independent experiments): > 100 µM
